Assay results from the SangsterLogP compilation.

Assays:
[1] = method code SF, from DOI: 10.1080/09553009014551091, PMID: 1970998; conditions: pH 7.4
[2] = method code SF-ESR, from DOI: 10.1111/1523-1747.ep12319780, PMID: 2551971; conditions: pH 7.0
[3] = method code SF-AS, from DOI: 10.1021/jm00304a030, PMID: 5793164; conditions: pH 7.4
[4] = method code SF-AS, from Korenman, I.; Nefedova, E.; Dyukova, I. (1977). Extraction of picramic acid. Int J Clin Pharmacol Ther Toxicol, 51(5)734-735.; conditions: pH 7.4
[5] = method code SF-HPLC, from PMID: 1880579; conditions: pH 7.4
[6] = method code SF-RC, from DOI: 10.1016/0006-2952(81)90006-x, PMID: 6456004
[7] = method code SF, from PMID: 8265709; conditions: pH 7.4
[8] = not given; remark: listed apart in the source
[9] = not given; remark: listed apart in the source
[10] = method code SF, from PMID: 15170; conditions: pH 5.0
[11] = method code SF-HPLC, from DOI: 10.1002/ps.2780370106; conditions: pH 0.0
[12] = method code SF-RC,FL, from DOI: 10.1016/0006-2952(81)90006-x, PMID: 6456004
[13] = method code SF-AS, from DOI: 10.1016/0022-1902(68)80266-0; conditions: pH 4.0
[14] = method code SF-AS, from DOI: 10.1016/0006-2952(75)90156-2, PMID: 235934; conditions: pH 7.4
[15] = not given; remark: listed apart in the source
[16] = method code SF, from DOI: 10.1002/jps.2600641111, PMID: 1195110; conditions: pH 7.4
[17] = method code SF, from DOI: 10.1248/yakushi1947.99.3_235; conditions: pH 11.0
[18] = not given; remark: listed apart in the source
[19] = not given; remark: listed apart in the source
[20] = method code SF, from DOI: 10.1248/cpb.42.1525, PMID: 7923475
[21] = method code SF-AS, from DOI: 10.1016/0014-2999(86)90191-3, PMID: 3780854; conditions: pH 7.4
[22] = not given; remark: listed apart in the source
[23] = not given; remark: listed apart in the source
[24] = method code SF-AS, from Korenman, Y.; Sotnikova, G. (1975). Extraction of vanillins from aqueous solutions. Zh. Prikl. Khim., 48(1)188-191.
[25] = method code SF, from DOI: 10.1007/s00253-012-4358-8, PMID: 23081771; conditions: pH 7.0
[26] = method code SF-CR+AS, from Korenman, Y. (1973). Extraction of guaiacol from aqueous solutions. Zh. Prikl. Khim., 46(6)1391-1394.; conditions: pH 2.0
[27] = not given; remark: listed apart in the source
[28] = method code SF-AS, from DOI: 10.1111/j.2042-7158.1989.tb06484.x, PMID: 2570835
[29] = method code SF-AS, from DOI: 10.1016/s0006-3495(76)85671-8, PMID: 1247644; conditions: pH 8.0
[30] = not given; remark: listed apart in the source
[31] = method code SF-AS, from DOI: 10.1016/s0022-3565(25)24763-2, PMID: 2019981; conditions: pH 7.4
[32] = method code SF-AS, from PMID: 2748530
[33] = method code SF, from DOI: 10.1016/0043-1354(79)90201-x
[34] = pH 1.0
[35] = not given; remark: listed apart in the source
[36] = method code SF-HPLC, from DOI: 10.1002/jps.2600810507, PMID: 1403673
[37] = method code SF, from DOI: 10.1021/js9601804, PMID: 9344176; conditions: pH 8.0
[38] = method code SF, from DOI: 10.1246/bcsj.60.4357
[39] = method code SF-GLC, from Park, Y.; Park, S. (2000). Determination and prediction of octanol/water partition coefficients and air-water partition coefficients for environmental toxic chemicals. 11(7)773-779.
[40] = not given; remark: listed apart in the source
[41] = not given; remark: listed apart in the source
[42] = method code SF, from DOI: 10.1248/yakushi1947.93.11_1452, PMID: 4273378
[43] = method code SF-HPLC, from DOI: 10.1007/bf03246517
[44] = method code SF, from DOI: 10.1021/jm00111a036, PMID: 2066990
[45] = not given; remark: listed apart in the source
[46] = method code SF, from DOI: 10.1007/bf00253009, PMID: 7273265; conditions: pH 7.4
[47] = method code SF, from Kruglik, P.; Leschev, M.; Rakhman'ko, M.; Bubel, N.; Asratyan, V. (1991). Extraction of 1,2,4-triazole and its derivatives by organic solvents. 64(8)1721-1724.
[48] = not given; remark: listed apart in the source
[49] = method code SF-RC, from DOI: 10.1002/qsar.19880070404; conditions: pH 0.0
[50] = not given; remark: listed apart in the source
[51] = method code SF-AS, from DOI: 10.1080/09553007214550551, PMID: 4537457

In the case of O=[N+]([O-])c1nccn1COC(CO)CO, the logD [1] is reported as -1.03.

With CO[C@@H]([C@H](O)[C@H](O)CO)[C@@H](O)C=O the logP was -3.

Compound CC1(C)COC(C)(C)N1O has a logD [2] of 0.48.

Compound Brc1ccc2[nH]ccc2c1 has a logD [3] of 3.

Work on CC(C)c1cnc([N+](=O)[O-])n1C yielded a logD [4] of 1.09.

With O=[N+]([O-])c1nccn1C1OC(CI)C(O)C1O (configuration not stated) the logD [5] was 0.7.

NCCc1ccccc1 gave a logP [6] of 1.16.

Cn1c(=O)c2[nH]cnc2n(C)c1=O gave a logD [7] of -0.18.

For O=C(NCCO[N+](=O)[O-])c1cccnc1, the logP [8] was -1.02.

In the case of CCOc1ccccc1O, the logP [9] is reported as 1.91.

For CCC1(CC)C(=O)NC(=O)NC1=O, the logD [10] was 0.71.

For Cc1c(F)c(F)c(C(=O)O)c(F)c1F, the logD [11] was 3.15.

NCCc1ccc(O)cc1 gave a logP [12] of -0.24.

With O=C(CC(=O)C(F)(F)F)c1cccs1 the logD [13] was 1.46.

In the case of CCOc1ccc([N+](=O)[O-])cc1, the logD [14] is reported as 2.53.

Work on Cc1cccc(O)c1 yielded a logP [15] of 2.01.

CC(=O)NCCn1c([N+](=O)[O-])cnc1C gave a logD [16] of -0.47.

OCCC1CCCCN1 (configuration not stated) gave a logD [17] of 0.11.

For O=S(=O)(CS(=O)(=O)C(F)(F)F)c1ccc(Cl)c(Cl)c1, the logP [18] was 1.7.

Work on COc1nc(C(Cl)(Cl)Cl)c(Cl)c(OC)c1Cl yielded a logP [19] of 5.48.

In the case of COC(=O)c1ccccc1, the logP [20] is reported as 2.09.

Compound COc1noc2c1CN(C)CC2 has a logD [21] of 0.4.

For CCC(CC)C(=O)NC(N)=O, the logP [22] was 0.91.

Compound CCCCCCC has a logP [23] of 4.48.

With COc1ccc(C=O)cc1O the logP [24] was 0.97.

With C=Cc1ccc(O)cc1 the logD [25] was 2.36.

COc1ccccc1O gave a logD [26] of 1.35.

O=[N+]([O-])c1nccn1C1OCC(I)CC1F (configuration not stated) showed a logP [27] of 0.8.

Compound O=c1[nH][nH]c(=O)c2ccccc12 has a logP [28] of 0.11.

Compound Cc1nc2c(Cl)c(Cl)c(Cl)c(Cl)c2[nH]1 has a logD [29] of 2.83.

Work on O=[N+]([O-])c1nccn1[C@H]1O[C@H](CF)[C@@H](O)[C@@H]1O yielded a logP [30] of 0.04.

Work on CCn1cccc(O)c1=O yielded a logD [31] of 0.08.

Work on O=[N+]([O-])c1nccn1CC(O)COCC(F)(F)F (configuration not stated) yielded a logP [32] of 0.46.

NC(=O)COCc1ccco1 gave a logP [33] of -0.11.

Work on O=C(O)Cc1c(Cl)ccc(Cl)c1Cl yielded a logD [34] of 3.2.

For Cc1ccccc1C, the logP [35] was 3.29.

Compound O=C(O)c1ccc(C(=O)O)cc1 has a logP [36] of 1.68.

O=C1COc2ccccc2N1 showed a logD [37] of 1.31.

For CCc1cc([N+](=O)[O-])cc([N+](=O)[O-])c1O, the logP [38] was 2.67.

CC(=O)OCCC(C)C gave a logP [39] of 2.55.

With O=C1NC(=O)c2ccccc21 the logP [40] was 1.04.

CCCn1cnc2c(N)ncnc21 showed a logP [41] of 0.74.

For CNC(=O)c1cccnc1, the logP [42] was 0.

Work on OCCc1ccc(O)cc1 yielded a logP [43] of 0.69.

With O=[N+]([O-])c1nccn1CC(O)C/C=C/I (configuration not stated) the logP [44] was 0.4.

In the case of O=C(Cn1ccnc1[N+](=O)[O-])NCC(F)(F)C(F)(F)F, the logP [45] is reported as 0.76.

With O=C(Cn1ccnc1[N+](=O)[O-])N(CO)CO the logD [46] was -1.59.

Compound CC(C)CCn1cnc([N+](=O)[O-])n1 has a logP [47] of 1.26.

Work on CC(C)(C)c1cn2nc(S(N)(=O)=O)sc2n1 yielded a logP [48] of 2.15.

O=C(O)Cc1ccccc1I gave a logD [49] of 2.33.

For CCC1C(=O)NC(=O)N(C)C1=O (configuration not stated), the logP [50] was 0.15.

With CC(=O)c1ccc(Cl)cc1 the logP [51] was 2.35.
